T1: Farnesyltransferase (Saccharomyces cerevisiae S288c, UniProt P22007+P29703)
T1 sequence (P29703 whole entry): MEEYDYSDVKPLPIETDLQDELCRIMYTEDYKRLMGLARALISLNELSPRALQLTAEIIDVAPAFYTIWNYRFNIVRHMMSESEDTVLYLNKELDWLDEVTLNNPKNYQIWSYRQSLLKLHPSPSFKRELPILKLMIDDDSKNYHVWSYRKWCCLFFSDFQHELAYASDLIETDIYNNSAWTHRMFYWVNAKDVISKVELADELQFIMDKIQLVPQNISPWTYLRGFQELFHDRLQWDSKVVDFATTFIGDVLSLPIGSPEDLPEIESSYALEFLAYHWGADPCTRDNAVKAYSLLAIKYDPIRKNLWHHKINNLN
T1 sequence (P22007 whole entry): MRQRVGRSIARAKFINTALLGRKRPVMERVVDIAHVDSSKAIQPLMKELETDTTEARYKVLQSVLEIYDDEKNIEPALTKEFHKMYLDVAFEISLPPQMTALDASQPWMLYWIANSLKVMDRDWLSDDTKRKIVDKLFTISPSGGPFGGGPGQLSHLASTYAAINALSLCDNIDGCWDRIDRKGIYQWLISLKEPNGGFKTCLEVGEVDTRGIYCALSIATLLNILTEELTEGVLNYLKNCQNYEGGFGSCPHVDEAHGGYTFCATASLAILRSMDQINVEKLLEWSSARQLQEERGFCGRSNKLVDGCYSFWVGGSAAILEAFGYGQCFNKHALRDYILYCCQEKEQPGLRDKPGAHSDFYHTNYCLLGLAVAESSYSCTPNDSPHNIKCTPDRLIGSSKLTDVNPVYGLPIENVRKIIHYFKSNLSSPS


Assays:
Farnesyltransferase = target: T1, Farnesyltransferase; experiment: (§1) Dissociation constant against yeast farnesyltransferase; format: protein-complex assay
[1] = substrate: CC(C)=CCC/C(C)=C/CC/C(C)=C/COP(=O)(O)OP(=O)(O)O; experiment: as §1; format: protein-complex assay; conditions: Saccharomyces cerevisiae

| Molecule | Ki (Farnesyltransferase) | Km [1] |
| --- | --- | --- |
| CC(C)=C/C=C/C(C)=C/C=C/C(C)=C/COP(=O)(O)OP(=O)(O)O | 8.8 µM |  |
| Farnesyltransferase (Saccharomyces cerevisiae S288c), P29703+P22007 (protein) chain 1: MEEYDYSDVKPLPIETDLQDELCRIMYTEDYKRLMGLARALISLNELSPRALQLTAEIIDVAPAFYTIWNYRFNIVRHMMSESEDTVLYLNKELDWLDEVTLNNPKNYQIWSYRQSLLKLHPSPSFKRELPILKLMIDDDSKNYHVWSYRKWCCLFFSDFQHELAYASDLIETDIYNNSAWTHRMFYWVNAKDVISKVELADELQFIMDKIQLVPQNISPWTYLRGFQELFHDRLQWDSKVVDFATTFIGDVLSLPIGSPEDLPEIESSYALEFLAYHWGADPCTRDNAVKAYSLLAIKYDPIRKNLWHHKINNLN chain 2: MRQRVGRSIARAKFINTALLGRKRPVMERVVDIAHVDSSKAIQPLMKELETDTTEARYKVLQSVLEIYDDEKNIEPALTKEFHKMYLDVAFEISLPPQMTALDASQPWMLYWIANSLKVMDRDWLSDDTKRKIVDKLFTISPSGGPFGGGPGQLSHLASTYAAINALSLCDNIDGCWDRIDRKGIYQWLISLKEPNGGFKTCLEVGEVDTRGIYCALSIATLLNILTEELTEGVLNYLKNCQNYEGGFGSCPHVDEAHGGYTFCATASLAILRSMDQINVEKLLEWSSARQLQEERGFCGRSNKLVDGCYSFWVGGSAAILEAFGYGQCFNKHALRDYILYCCQEKEQPGLRDKPGAHSDFYHTNYCLLGLAVAESSYSCTPNDSPHNIKCTPDRLIGSSKLTDVNPVYGLPIENVRKIIHYFKSNLSSPS |  | 27 µM |

Reference: ChEMBL document CHEMBL1147548, “Didehydrofarnesyl diphosphate: an intrinsically fluorescent inhibitor of protein farnesyltransferase” (Bioorg Med Chem Lett, 2004)
